Experimental data from US20230398125A1, “TREATING HEPATITIS” (Albireo AB, priority 2022, published 2023).
Like-named read-outs stand apart in the source and are kept apart here.

Experiment: Pharmacokinetic phase: plasma exposure after oral dosing in non-infected PXB mice
Type: in vivo
Conditions: for concentration at 0.5 h / concentration at 1 h / concentration at 2 h / concentration at 4 h / concentration at 6 h / concentration at 24 h: PXB, mouse, plasma, po
Method: Thirty microliters (30 μL) of blood were collected from all animals under isoflurane anesthesia via the retro-orbital plexus/sinus using sodium heparin-coated calibrated pipettes according to the collection schedule shown in Table 7. The individual blood samples of the animals were transferred to labeled microtubes and stored under chilled conditions until centrifugation at 3500×g, 5° C. for 10 minutes to obtain plasma. Individual plasma samples were transferred into separately labeled microtubes and snap frozen in liquid nitrogen. The plasma exposure of Compound 1 from the pharmacokinetic phase was measured via LC/MS- MS. The lower limit of quantitation was 1 ng/mL.

[1] = 10 mg/kg, non-infected PXB mice, 10 mg/kg p.o., animal 101, read-out: Plasma conc.
[2] = 10 mg/kg, non-infected PXB mice, 10 mg/kg p.o., animal 102, read-out: Plasma conc.
[3] = 10 mg/kg, non-infected PXB mice, 10 mg/kg p.o., animal 103, read-out: Plasma conc.
[4] = 10 mg/kg, non-infected PXB mice, 10 mg/kg p.o., mean of 3 animals, read-out: Plasma conc. Mean ± SD
[5] = 10 mg/kg, non-infected PXB mice, 10 mg/kg p.o., animal 201, read-out: Plasma conc.
[6] = 10 mg/kg, non-infected PXB mice, 10 mg/kg p.o., animal 202, read-out: Plasma conc.
[7] = 10 mg/kg, non-infected PXB mice, 10 mg/kg p.o., animal 203, read-out: Plasma conc.
[8] = 30 mg/kg, non-infected PXB mice, 30 mg/kg p.o., animal 301, read-out: Plasma conc.
[9] = 30 mg/kg, non-infected PXB mice, 30 mg/kg p.o., animal 302, read-out: Plasma conc.
[10] = 30 mg/kg, non-infected PXB mice, 30 mg/kg p.o., animal 303, read-out: Plasma conc.
[11] = 30 mg/kg, non-infected PXB mice, 30 mg/kg p.o., mean of 3 animals, read-out: Plasma conc. Mean ± SD
[12] = 30 mg/kg, non-infected PXB mice, 30 mg/kg p.o., animal 401, read-out: Plasma conc.
[13] = 30 mg/kg, non-infected PXB mice, 30 mg/kg p.o., animal 402, read-out: Plasma conc.
[14] = 30 mg/kg, non-infected PXB mice, 30 mg/kg p.o., animal 403, read-out: Plasma conc.

Compound: CCCCC1CN(c2ccccc2)c2cc(SC)c(O/C=C(\F)C(=O)O)cc2S(=O)(=O)N1C (centres unmarked) [Compound 1, (Z)-3-((3-butyl-2-methyl-7-(methylthio)-1,1-dioxido-5-phenyl-2,3,4,5-tetrahydro-1,2,5-benzothiadiazepin-8-yl)oxy)-2-fluoroacrylic acid]
- plasma exposure versus dose (10 and 30 mg/kg p.o.): increased with increased dose
- detection in plasma (10 and 30 mg/kg p.o., non-infected PXB mice): detected in plasma throughout the 24-hour time period
- concentration at 0.5 h [1]: 1290 ng/mL
- concentration at 0.5 h [2]: 2650 ng/mL
- concentration at 0.5 h [3]: 727 ng/mL
- concentration at 0.5 h [4]: 1560 ± 990 ng/mL
- concentration at 1 h [5]: 492 ng/mL
- concentration at 1 h [6]: 763 ng/mL
- concentration at 1 h [7]: 1810 ng/mL
- concentration at 1 h [4]: 1020 ± 690 ng/mL
- concentration at 2 h [1]: 194 ng/mL
- concentration at 2 h [2]: 322 ng/mL
- concentration at 2 h [3]: 177 ng/mL
- concentration at 2 h [4]: 231 ± 79 ng/mL
- concentration at 4 h [5]: 111 ng/mL
- concentration at 4 h [6]: 61.4 ng/mL
- concentration at 4 h [7]: 587 ng/mL
- concentration at 4 h [4]: 253 ± 290 ng/mL
- concentration at 6 h [1]: 46.2 ng/mL
- concentration at 6 h [2]: 63.5 ng/mL
- concentration at 6 h [3]: 130 ng/mL
- concentration at 6 h [4]: 80 ± 44 ng/mL
- concentration at 24 h [5]: 25.3 ng/mL
- concentration at 24 h [6]: 27.2 ng/mL
- concentration at 24 h [7]: 1.4 ng/mL
- concentration at 24 h [4]: 18 ± 14 ng/mL
- concentration at 0.5 h [8]: 1880 ng/mL
- concentration at 0.5 h [9]: 2910 ng/mL
- concentration at 0.5 h [10]: 6810 ng/mL
- concentration at 0.5 h [11]: 3870 ± 2600 ng/mL
- concentration at 1 h [12]: 4560 ng/mL
- concentration at 1 h [13]: 5320 ng/mL
- concentration at 1 h [14]: 1470 ng/mL
- concentration at 1 h [11]: 3780 ± 2000 ng/mL
- concentration at 2 h [8]: 2420 ng/mL
- concentration at 2 h [9]: 590 ng/mL
- concentration at 2 h [10]: 3040 ng/mL
- concentration at 2 h [11]: 2020 ± 1300 ng/mL
- concentration at 4 h [12]: 1120 ng/mL
- concentration at 4 h [13]: 1090 ng/mL
- concentration at 4 h [14]: 217 ng/mL
- concentration at 4 h [11]: 811 ± 510 ng/mL
- concentration at 6 h [8]: 554 ng/mL
- concentration at 6 h [9]: 99.8 ng/mL
- concentration at 6 h [10]: 1490 ng/mL
- concentration at 6 h [11]: 715 ± 700 ng/mL
- concentration at 24 h [12]: 230 ng/mL
- concentration at 24 h [13]: 229 ng/mL
- concentration at 24 h [14]: 148 ng/mL
- concentration at 24 h [11]: 202 ± 47 ng/mL
